Experimental data from patent publication US20090247768A1, “CRYSTALLINE SULFONAMIDE-CONTAINING INDOLE COMPOUND AND PROCESS FOR PREPARING THE SAME” (priority 2003, published 2009).

Assay: Solid stability against light (impurity content by HPLC after storage)
Type: physicochemical
Conditions: for Impurity content (%): HPLC; for change in impurity content before and after storage: 25° C./1000 Lx, 1 month and 3 months
Description: Column: ODS column (inner diameter=4.6 mm, column length=250 mm, particle size=5 μm) Column temperature: 30° C. Detection wavenumber: 282 nm Flow rate: 1.0 mL/min Mobile phase: Solution A: CH3CN/H2O/70% HClO4=100/900/1 (v/v/v) Solution B: CH3CN/H2O/70% HClO4=900/100/1 (v/v/v)
All of the peaks and peak areas were calculated from the chromatogram, and the impurity amount for each peak (except for the peak of N-(3-cyano-4-methyl-1H-indol-7-yl)-3-cyanobenzenesulfonamide) was calculated according to the following formula.
Individual impurity content (%)=(individual impurity peak area)/(total of all peak areas)×100
Peaks with impurity contents of 0.05% or greater were recorded as impurity peaks, and their total was recorded as the impurity content of the crystals.
Impurity content (%)=Total of individual impurity contents (%)
The crystals obtained in Example 1C, Example 1E and Example 1F were stored for 1 month and 3 months at 25° C./1000 Lx (LT-120D3J Light Stability Tester by Nagano Science, Japan), and then the impurity contents were measured by HPLC.
HPLC was conducted under the same conditions as in Test Example 1, except that elution was performed with the gradient program shown in Table 14.
The impurity content of the crystals was determined by the same method as described for Test Example 1. […] That is, the crystals obtained in Examples 1F and 1C (Form A and Form C) clearly had higher stability against light.

[1] = solid crystals stored at 25° C./1000 Lx/1 month
[2] = solid crystals stored at 25° C./1000 Lx/3 months

Compound	Impurity content (%) [1]	Impurity content (%) [2]	change in impurity content before and after storage (solid crystals)	Impurity content (%) (solid crystals, before storage)
Cc1ccc(NS(=O)(=O)c2cccc(C#N)c2)c2[nH]cc(C#N)c12 [Example 1C, N-(3-cyano-4-methyl-1H-indol-7-yl)-3-cyanobenzenesulfonamide]	0.51%	0.51%	no change	0.51%
Cc1ccc(NS(=O)(=O)c2cccc(C#N)c2)c2[nH]cc(C#N)c12 [Example 1E, N-(3-cyano-4-methyl-1H-indol-7-yl)-3-cyanobenzenesulfonamide]	0.83%	4.44%	increased	0.50%
Cc1ccc(NS(=O)(=O)c2cccc(C#N)c2)c2[nH]cc(C#N)c12 [Example 1F, N-(3-cyano-4-methyl-1H-indol-7-yl)-3-cyanobenzenesulfonamide]	0.41%	0.51%	no change	0.42%
